Data on 17 molecules can be found in article PMC5681660, “Reduced hepatitis B and D viral entry using clinically applied drugs as novel inhibitors of the bile acid transporter NTCP” (Scientific Reports, 2017).

Experiment [1] concerns the target T1, human NTCP (Homo sapiens, UniProt Q14973).
T1 sequence (Q14973 1-349): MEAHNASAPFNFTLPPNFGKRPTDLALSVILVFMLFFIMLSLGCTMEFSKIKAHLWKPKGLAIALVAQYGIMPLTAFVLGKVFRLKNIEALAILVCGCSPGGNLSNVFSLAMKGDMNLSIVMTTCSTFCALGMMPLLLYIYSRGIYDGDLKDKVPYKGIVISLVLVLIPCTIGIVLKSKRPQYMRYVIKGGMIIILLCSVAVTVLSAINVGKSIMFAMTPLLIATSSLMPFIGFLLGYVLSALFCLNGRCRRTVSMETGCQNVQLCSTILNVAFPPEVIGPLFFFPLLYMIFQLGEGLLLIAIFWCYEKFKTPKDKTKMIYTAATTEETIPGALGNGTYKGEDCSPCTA
The experiment is described as follows: Screening taurocholate uptake assay (96-well, [14C]taurocholate, 10 µM drug).

Experiment [2] addresses T1, human NTCP. The experiment is described as follows: Screening fluorescent competitive Myrcludex B-FITC binding assay (96-well, 10 µM drug).
[3] abbreviates: Prestwick library screen, 10 µM drug, B-score of taurocholate uptake.
The mark [4] stands for this setting: combined ranking from functional and binding assay B-scores.
Where [5] appears, read: Prestwick library screen, 10 µM drug, B-score of Myrcludex B-FITC binding.
The mark [6] stands for this setting: Prestwick library screen, taurocholate uptake, 10 µM drug.
The mark [7] stands for this setting: ranking score beside the functional and binding assay B-scores of the screen.
Where [8] appears, read: Prestwick library screen, Myrcludex B-FITC binding, 10 µM drug.
Where [9] appears, read: combined ranking from functional and binding screening assays.
Setting [10] is: screen, 10 µM drug, taurocholate uptake.
The mark [11] stands for this setting: screen, 10 µM drug, Myrcludex B-FITC binding.

Structures can show the parent of a compound that is named as a salt. Where two headings read alike, the source gives them in different places.

`O=c1[nH]cnc2c1ncn2[C@H]1CC[C@@H](CO)O1` [Didanosine] came in with a B-score functional assay at human NTCP [1] (setting [3]) of 0.086. Further, the Ranking score at human NTCP [1] (setting [4]) turned out to be 927.069. On human NTCP [2] (setting [5]), this molecule yielded a B-score binding assay of 1.663.
At human NTCP [1] (setting [6]), Norgestrel-(-)-D showed a B-score functional assay of 0.036. Further, the Ranking score at human NTCP [1] (setting [7]) was 704.84. For the same molecule, the B-score binding assay on human NTCP [2] (setting [8]) came to 0.069.
Consider `CC(=O)OCC(=O)[C@@]12N=C(C)O[C@@H]1C[C@H]1[C@@H]3CCC4=CC(=O)C=C[C@]4(C)[C@H]3[C@@H](O)C[C@@]12C` [Deflazacort], for which, on human NTCP [1] (setting [9]), the Ranking score is 446.866. Further, the B-score functional assay at human NTCP [1] (setting [10]) was 0.131. The same molecule showed a B-score binding assay on human NTCP [2] (setting [11]) of -0.898.
`NS(=O)(=O)Cc1noc2ccccc12` [Zonisamide] returned a B-score functional assay on human NTCP [1] (setting [3]) of 3.016. For the same molecule, on human NTCP [1] (setting [4]), the Ranking score worked out at 1038.21. This molecule also registered a B-score binding assay on human NTCP [2] (setting [5]) of 0.365.
On human NTCP [1] (setting [6]), `CCCCOC(=O)c1ccc(O)cc1` [Butylparaben] yielded a B-score functional assay of 5.239. Also, the Ranking score on human NTCP [1] (setting [7]) amounted to 668.543. The B-score binding assay on human NTCP [2] (setting [8]) is recorded as -0.593.
Take `CN(C)CCCN1c2ccccc2Sc2ccccc21` [Promazine hydrochloride]: at human NTCP [1], the B-score functional assay is recorded as 0.194 and the Ranking score came to 494.272. On human NTCP [2], this molecule registered a B-score binding assay of -0.725.
For the molecule `C[C@](N)(Cc1ccc(O)c(O)c1)C(=O)O` [Methyldopa (L,-)], the B-score functional assay on human NTCP [1] (setting [6]) is given as 1.009. Moreover, the Ranking score on human NTCP [1] (setting [7]) is 793.128. Also, the B-score binding assay at human NTCP [2] (setting [8]) was -0.046.
Take `CCCCCCNC(=O)n1cc(F)c(=O)[nH]c1=O` [Carmofur]: the Ranking score on human NTCP [1] (setting [9]) came to 358.68. The molecule further came in with a B-score functional assay on human NTCP [1] (setting [10]) of -2.036. The B-score binding assay on human NTCP [2] (setting [11]) stood at 0.877.
On human NTCP [1], `CNCCC(Oc1ccccc1OC)c1ccccc1` (stereo not drawn) [Nisoxetine hydrochloride] showed a B-score functional assay of -0.598 and a Ranking score of 324.321. Also, on human NTCP [2], the B-score binding assay is reported as -0.726.
`O=C(O)/C=C\C(=O)O.O=C(O)/C=C\C(=O)O.c1ccc2nc(N3CCNCC3)ccc2c1` [Quipazine dimaleate salt] yielded a B-score functional assay at human NTCP [1] (setting [3]) of 0.305. Besides, the Ranking score at human NTCP [1] (setting [4]) is on record as 954.17. Moreover, the B-score binding assay at human NTCP [2] (setting [5]) worked out at 1.213.
With `C[C@H]1c2cccc(O)c2C(=O)C2=C(O)[C@]3(O)C(=O)C(C(N)=O)=C(O)[C@@H](N(C)C)[C@@H]3[C@@H](O)[C@@H]21` [Doxycycline hydrochloride], the Ranking score on human NTCP [1] (setting [9]) is recorded as 380.385. At human NTCP [1] (setting [10]), this molecule returned a B-score functional assay of -0.015. For the same molecule, at human NTCP [2] (setting [11]), the B-score binding assay is reported as -1.041.
Take `C[C@H]1[C@H](NC(=O)/C(=N\OC(C)(C)C(=O)O)c2csc(N)n2)C(=O)N1S(=O)(=O)O` [Aztreonam]: the B-score functional assay at human NTCP [1] (setting [3]) is given as 1.332. Also, on human NTCP [1] (setting [4]), the Ranking score was 1061.36. This molecule also registered a B-score binding assay at human NTCP [2] (setting [5]) of 0.858.
`C/C=C(/C(=C/C)c1ccc(O)cc1)c1ccc(O)cc1` [Dienestrol]: the Ranking score at human NTCP [1] (setting [9]) is on record as 419.874. This molecule also registered a B-score functional assay at human NTCP [1] (setting [10]) of -0.196. On human NTCP [2] (setting [11]), this molecule came in with a B-score binding assay of -0.567.
Consider `COc1ccccc1O` [Guaiacol], for which, at human NTCP [1] (setting [6]), the B-score functional assay is listed as -0.032. This molecule gave a Ranking score at human NTCP [1] (setting [7]) of 782.911. The B-score binding assay on human NTCP [2] (setting [8]) was 0.94.
As for `COC(=O)[C@H](c1ccccc1Cl)N1CCc2sccc2C1` [Clopidogrel], the Ranking score on human NTCP [1] (setting [9]) is reported as 419.199. Also, the B-score functional assay at human NTCP [1] (setting [10]) worked out at 0.915. On human NTCP [2] (setting [11]), this molecule returned a B-score binding assay of -1.412.
For the molecule `COc1ccc2c(c1)C(=O)N(CCc1ccc(S(=O)(=O)NC(=O)NC3CCCCC3)cc1)C(=O)C2(C)C` [Gliquidone], the Ranking score at human NTCP [1] (setting [9]) is given as 336.107. For the same molecule, the B-score functional assay on human NTCP [1] (setting [10]) was -2.316. This molecule came in with a B-score binding assay on human NTCP [2] (setting [11]) of 1.024.
In turn, `CCOc1ccccc1OC(c1ccccc1)C1CNCCO1.CS(=O)(=O)O` (stereo not drawn) [Reboxetine mesylate] came in with a B-score functional assay on human NTCP [1] (setting [6]) of 1.175. At human NTCP [1] (setting [7]), this molecule displayed a Ranking score of 814.737. The same molecule came in with a B-score binding assay on human NTCP [2] (setting [8]) of -0.028.
